Structures are written as SMILES. In brackets after ≈: the same amount, converted by molar mass.

The nature of this series: Solubility in isotonic phosphate buffer containing PEG 400. The series is classed as physicochemical. On the procedure:
For use of clotrimazole, solubility in phosphate buffer is an issue and therefore, 20% and 40% PEG 400 are added to the phosphate buffer and the solubility is determined.

One may read the solubility as how much of the substance goes into solution per volume. Consider `Clc1ccccc1C(c1ccccc1)(c1ccccc1)n1ccnc1` [clotrimazole, Clotrimazole], for which the solubility (organic solvent or mixture, isotonic phosphate buffer (pH 6.8) containing 20% PEG 400) was about 60 µg/mL (≈ 174 µM) and the solubility (pH 6.8, organic solvent or mixture, phosphate buffer containing 40% PEG 400) was about 430 µg/mL (≈ 1250 µM).

These data come from patent US5578315A, “Mucosal adhesive device for long-acting delivery of pharmaceutical combinations in oral cavity” (Rutgers, The State University of New Jersey, priority 1993, dated 1996).
